Test results from publication PMC9415638, “Discovery of novel thiazolyl-pyrazolines as dual EGFR and VEGFR-2 inhibitors endowed with in vitro antitumor activity towards non-small lung cancer” (Journal of Enzyme Inhibition and Medicinal Chemistry, 2022).
Where two headings read alike, the source gives them in different places.

Columns and labels:
VEGFR-2 = tested on: VEGFR-2; parameters: method as in PMID 30641320; settings: Figure 2; cited from earlier work
K562 leukaemia cells = assay: Anti-proliferative MTT assay; assay type: cell-based; settings: Homo sapiens, 24 h, read-out: % Growth inhibition ± SEM K562
Experimental: (§1) To evaluate the anti-proliferative activity of the synthesised thiazolyl-pyrazoline derivatives (7a–7d, 10a–10d, and 13a–13f), a preliminary in vitro one dose (10 µM) anticancer assay was performed. Nine cell lines derived from five tumour subpanels were examined; leukaemia (K562 and KG-1a), breast (MCF-7, BT-549 and HCC70), lung (A549 and H441), colon (HCT116) and liver (HepG2) cancer cell lines. The compounds were added at a single concentration (10 µM) and the cultures were incubated for 24 h, then the per cent growth inhibition (%GI) was calculated.
(§2) Human leukaemia (K562 and KG-1a), breast (MCF-7, BT-549 and HCC70), lung (A549, H441, NCI-H1650 and NCI-H1975), colon (HCT116), liver (HepG2) cancer cell lines and WI-38 human lung fibroblast cell line were obtained from the American Type Culture Collection (ATCC; Manassas, VA) and were cultured in their suitable media containing 10% foetal bovine serum (FBS; Sigma-Aldrich) in a humidified atmosphere with 5% CO2 at 37 °C. Gefitinib and vandetanib were purchased from Sigma-Aldrich. All chemicals used in this study were analytical or cell-culture grade.
(§3) Cytotoxicity was measured using the MTT assay. Human leukaemia (K562 and KG-1a), breast (MCF-7, BT-549 and HCC70), lung (A549, H441, NCI-H1650 and NCI-H1975), colon (HCT116), liver (HepG2) cancer cell lines and WI-38 human lung fibroblast cell line were plated at a density of 1 × 10^4 cells per well in 96-well plates overnight and then treated with the compounds. After 24 h treatment, 20 μL of MTT solution (2 mg/mL in phosphate-buffered saline [PBS]) was added to each well and the cells were cultured for another 4 h at 37 °C. The medium was aspirated and 150 μL DMSO was added to solubilise MTT formazan crystals. The plates were then shaken, and the optical density was determined at 570 nm using an ELISA plate reader (Model 550, Bio-Rad, Hercules, CA). At least three independent experiments were performed. The IC50 values were calculated using GraphPad Prism 5 (Version 5.01, GraphPad Software, San Diego, CA).

[1] = tested on: BT-549 breast cancer cells; assay: Anti-proliferative MTT assay; assay type: cell-based; settings: Homo sapiens, 24 h, read-out: % Growth inhibition ± SEM BT-549
Experimental: as §1, §2, §3

[2] = tested on: HCT116 colon cancer cells; assay: Anti-proliferative MTT assay; assay type: cell-based; settings: Homo sapiens, HCT-116, 24 h, read-out: % Growth inhibition ± SEM HCT116
Experimental: as §1, §2, §3

HepG2 liver cancer cells = assay: Anti-proliferative MTT assay; assay type: cell-based; settings: Homo sapiens, 24 h, read-out: % Growth inhibition ± SEM HepG2
Experimental: as §1, §2, §3

[3] = tested on: HCC70 breast cancer cells; assay: Anti-proliferative MTT assay; assay type: cell-based; settings: Homo sapiens, 24 h, read-out: % Growth inhibition ± SEM HCC70
Experimental: as §1, §2, §3

KG-1a leukaemia cells = assay: Anti-proliferative MTT assay; assay type: cell-based; settings: Homo sapiens, 24 h, read-out: % Growth inhibition ± SEM KG-1a
Experimental: as §1, §2, §3

[4] = tested on: MCF-7 breast cancer cells; assay: Anti-proliferative MTT assay; assay type: cell-based; settings: Homo sapiens, MCF7, 24 h, read-out: % Growth inhibition ± SEM MCF-7
Experimental: as §1, §2, §3

A549 lung cancer cells = assay: Anti-proliferative MTT assay; settings: Homo sapiens, A549, 24 h; for inhibition at 10 µM: read-out: % Growth inhibition ± SEM A549; for IC50: read-out: IC50 (µM) ± SEM A549
[5] = target: T1, recombinant human VEGFR-2/KDR (Homo sapiens, UniProt P35968); assay: VEGFR-2 kinase assay (VEGFR-2/KDR ELISA kit); assay type: biochemical; settings: read-out: IC50 (nM) ± SEM VEGFR-2
T1 construct: purchased
Experimental: (§4) The EGFR kinase assay was carried out in 96-well plates coated with PGT (poly l-glutamic acid l-tyrosine, 4:1, Sigma Aldrich, St. Louis, MO) as previously described. IC50 values were calculated using GraphPad Prism 5. Each experiment was carried out at least three times. The VEGFR-2 kinase assay was carried out in 96-well streptavidin coated plate using recombinant human VEGFR-2/KDR ELISA kit according to manufacturer’s instructions.

EGFR = EGFR (Homo sapiens, UniProt P00533); assay: EGFR kinase assay (PGT-coated 96-well plates); assay type: biochemical; settings: read-out: IC50 (nM) ± SEM EGFR
Experimental: as §4

[6] = tested on: WI-38 human lung fibroblast cells; assay: MTT cytotoxicity assay on normal cells; assay type: cell-based; settings: Homo sapiens, WI-38; normal lung fibroblasts, MTT, 24 h, n = 3; read-out: IC50 (µM) ± SEM WI-38
Experimental: All chemicals used in this study were analytical or cell-culture grade.
Cytotoxicity was measured using the MTT assay. […] The medium was aspirated and 150 μL DMSO was added to solubilise MTT formazan crystals. The plates were then shaken, and the optical density was determined at 570 nm using an ELISA plate reader (Model 550, Bio-Rad, Hercules, CA). At least three independent experiments were performed.

H441 lung cancer cells = assay: Anti-proliferative MTT assay; settings: for inhibition at 10 µM: read-out: % Growth inhibition ± SEM H441
A549 cells = assay: Cell cycle analysis by flow cytometry (7AAD); assay type: cell-based, human; settings: A549, 20 µM, 24 h
Experimental: Figure 6. […] (A) Representative cell cycle distribution data are shown by flow cytometric analysis upon incubation with 0 (control), 2.5 or 5 μM of 10b or 10d or with 0 (control), 5 or 20 μM of gefitinib for 24 h. (B) Quantification of cell cycle distribution upon 24 h incubation with 10b or 10d.
DNA content was measured using 7-aminoactinmycin D (7AAD) (Biotium, Inc., Hayward, CA) staining and is commonly used for cell cycle phase analysis as previously described. Apoptosis was evaluated using the annexin V/propidium iodide (PI) staining kit (BioLegend, San Diego, CA) according to the manufacturer’s instructions and as previously described.

[7] = Homo sapiens, NCI-H441, 24 h, read-out: IC50 (µM) ± SEM H441, MTT, 24 h, n = 3

T1 sequence (P35968 20-1356): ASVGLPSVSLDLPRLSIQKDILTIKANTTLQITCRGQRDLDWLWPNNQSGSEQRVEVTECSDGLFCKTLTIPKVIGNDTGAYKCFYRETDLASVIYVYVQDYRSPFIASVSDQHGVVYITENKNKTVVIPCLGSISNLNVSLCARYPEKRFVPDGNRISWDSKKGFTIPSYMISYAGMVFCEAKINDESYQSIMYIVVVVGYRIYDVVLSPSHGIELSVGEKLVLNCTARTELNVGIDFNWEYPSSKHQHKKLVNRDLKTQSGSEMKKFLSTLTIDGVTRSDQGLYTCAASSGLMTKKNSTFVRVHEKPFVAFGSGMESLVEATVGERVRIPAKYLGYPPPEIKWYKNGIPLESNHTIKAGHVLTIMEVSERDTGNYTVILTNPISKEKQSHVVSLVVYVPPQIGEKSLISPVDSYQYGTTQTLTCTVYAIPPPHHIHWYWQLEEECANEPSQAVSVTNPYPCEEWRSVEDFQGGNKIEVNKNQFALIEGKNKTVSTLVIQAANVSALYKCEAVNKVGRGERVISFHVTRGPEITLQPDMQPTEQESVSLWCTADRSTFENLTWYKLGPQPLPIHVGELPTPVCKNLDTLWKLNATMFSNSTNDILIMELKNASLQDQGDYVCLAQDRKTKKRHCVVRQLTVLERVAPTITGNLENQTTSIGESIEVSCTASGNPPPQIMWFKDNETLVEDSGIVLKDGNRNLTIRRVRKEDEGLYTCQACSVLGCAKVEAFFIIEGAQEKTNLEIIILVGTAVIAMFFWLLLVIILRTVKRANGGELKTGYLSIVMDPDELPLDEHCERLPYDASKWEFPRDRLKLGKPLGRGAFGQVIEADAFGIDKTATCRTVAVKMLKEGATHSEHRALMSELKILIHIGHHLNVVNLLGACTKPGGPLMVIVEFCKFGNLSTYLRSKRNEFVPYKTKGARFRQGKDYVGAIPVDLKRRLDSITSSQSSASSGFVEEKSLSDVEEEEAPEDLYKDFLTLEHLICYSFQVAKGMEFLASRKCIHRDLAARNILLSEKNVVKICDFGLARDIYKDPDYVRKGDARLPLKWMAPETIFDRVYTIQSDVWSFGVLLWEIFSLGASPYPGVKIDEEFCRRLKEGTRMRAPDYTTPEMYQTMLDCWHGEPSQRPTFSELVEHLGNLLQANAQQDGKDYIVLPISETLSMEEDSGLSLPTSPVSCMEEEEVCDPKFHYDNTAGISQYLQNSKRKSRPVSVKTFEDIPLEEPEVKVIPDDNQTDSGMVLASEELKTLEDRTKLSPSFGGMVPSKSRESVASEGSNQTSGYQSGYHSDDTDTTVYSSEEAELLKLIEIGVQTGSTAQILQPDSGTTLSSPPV
EGFR, sequence (P00533 25-1210): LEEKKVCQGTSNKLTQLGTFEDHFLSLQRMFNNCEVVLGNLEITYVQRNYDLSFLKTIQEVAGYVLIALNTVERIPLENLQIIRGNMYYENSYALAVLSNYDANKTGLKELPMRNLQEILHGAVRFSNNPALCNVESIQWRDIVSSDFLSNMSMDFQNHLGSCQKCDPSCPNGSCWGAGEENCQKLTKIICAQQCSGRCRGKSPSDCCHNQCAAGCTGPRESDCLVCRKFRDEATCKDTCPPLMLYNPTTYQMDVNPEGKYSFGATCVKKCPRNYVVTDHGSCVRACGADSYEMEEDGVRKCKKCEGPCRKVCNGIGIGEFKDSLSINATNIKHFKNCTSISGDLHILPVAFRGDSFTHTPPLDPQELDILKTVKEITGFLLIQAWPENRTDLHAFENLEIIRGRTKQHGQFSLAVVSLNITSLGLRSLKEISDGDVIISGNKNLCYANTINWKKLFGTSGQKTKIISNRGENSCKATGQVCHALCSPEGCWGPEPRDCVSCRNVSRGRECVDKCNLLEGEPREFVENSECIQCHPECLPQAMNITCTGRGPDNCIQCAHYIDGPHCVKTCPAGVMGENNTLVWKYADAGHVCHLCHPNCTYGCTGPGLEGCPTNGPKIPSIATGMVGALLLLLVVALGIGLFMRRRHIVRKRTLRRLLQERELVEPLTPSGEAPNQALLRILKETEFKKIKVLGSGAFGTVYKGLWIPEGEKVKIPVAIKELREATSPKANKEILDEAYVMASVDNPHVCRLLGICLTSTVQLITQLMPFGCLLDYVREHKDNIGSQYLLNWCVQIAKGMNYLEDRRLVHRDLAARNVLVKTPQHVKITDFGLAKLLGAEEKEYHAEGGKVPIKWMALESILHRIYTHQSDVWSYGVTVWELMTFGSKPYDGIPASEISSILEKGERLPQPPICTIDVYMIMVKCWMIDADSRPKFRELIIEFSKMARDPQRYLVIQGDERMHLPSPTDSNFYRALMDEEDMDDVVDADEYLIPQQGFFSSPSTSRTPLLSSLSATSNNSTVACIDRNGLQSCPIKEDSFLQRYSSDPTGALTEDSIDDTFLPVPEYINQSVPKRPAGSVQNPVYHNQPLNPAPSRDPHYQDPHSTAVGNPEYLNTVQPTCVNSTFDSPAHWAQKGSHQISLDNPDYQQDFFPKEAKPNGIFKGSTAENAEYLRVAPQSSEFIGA

SMILES	melting point [°C]	IC50 (A549 lung cancer cells) [µM]	IC50 [5] [nM]	IC50 (EGFR) [nM]	IC50 (H441 lung cancer cells; [7]) [µM]	IC50 (H441 lung cancer cells; read-out: IC50 (µM) ± SEM H441, MTT, 24 h, n = 3) [µM]	IC50 (VEGFR-2) [µM]	inhibition at 10 µM (K562 leukaemia cells) [%]	inhibition at 10 µM [1] [%]	inhibition at 10 µM [2] [%]	inhibition at 10 µM (HepG2 liver cancer cells) [%]	inhibition at 10 µM [3] [%]	inhibition at 10 µM (KG-1a leukaemia cells) [%]	inhibition at 10 µM [4] [%]	inhibition at 10 µM (A549 lung cancer cells) [%]	IC50 [6] [µM]	inhibition at 10 µM (H441 lung cancer cells; Homo sapiens, NCI-H441, 24 h) [%]	cell cycle arrest phase (A549 cells)
CN(C)c1ccc(C2CC(c3c(O)c4ccccc4oc3=O)=NN2c2nc(-c3ccccc3)c(/N=N/c3ccc(Cl)cc3)s2)cc1 (stereo not drawn) [Compound IV]	–	–	–	–	–	–	0.034	–	–	–	–	–	–	–	–	–	–	–
COc1cc2ncnc(Nc3ccc(F)c(Cl)c3)c2cc1OCCCN1CCOCC1 [Gefitinib, reference compound]	–	–	–	–	–	–	–	–	–	–	–	–	–	–	–	–	–	significantly arrested the cell cycle at G1 phase
COc1ccc(C2CC(c3ccc(Cl)cc3Cl)=NN2c2nc(C)c(C(=O)Nc3ccccc3)s2)cc1 (stereo not drawn) [Compound 10c, 2-(3-(2,4-Dichlorophenyl)-5-(4-methoxyphenyl)-4,5-dihydro-1H-pyrazol-1-yl)-4-methyl-N-phenylthiazole-5-carboxamide]	195 to 197	23.5 ± 1.3	102 ± 4.3	130.7 ± 1.1	45.2 ± 2.3	–	–	11.2 ± 1	22.3 ± 0.8	7.9 ± 1.1	11.9 ± 1.1	18.3 ± 1.6	9.1 ± 1	2.5 ± 0.8	28.9 ± 2	> 100	8.7 ± 0.1	–
COc1ccc(C2CC(c3ccc(Cl)cc3Cl)=NN2c2nc(C)c(N=Nc3ccc(Cl)cc3)s2)cc1OC (stereo not drawn) [Compound 13f, 5-((4-Chlorophenyl)diazenyl)-2-(3-(2,4-dichlorophenyl)-5-(3,4-dimethoxyphenyl)-4,5-dihydro-1H-pyrazol-1-yl)-4-methylthiazole]	190 to 191	13.7 ± 2.2	113 ± 1.8	107 ± 1.2	24.8 ± 1.4	–	–	31.5 ± 1	24.6 ± 1.3	0.2	0.9 ± 0.3	6.3 ± 1	20 ± 2.8	0.8 ± 0.2	47.5 ± 3.1	> 100	17.3 ± 0.6	–

More lines, main results first:

melting point [°C]	IC50 (A549 lung cancer cells) [µM]	IC50 [5] [nM]	IC50 (EGFR) [nM]	IC50 (H441 lung cancer cells; [7]) [µM]	IC50 (H441 lung cancer cells; read-out: IC50 (µM) ± SEM H441, MTT, 24 h, n = 3) [µM]	SMILES	IC50 (VEGFR-2) [µM]	inhibition at 10 µM (K562 leukaemia cells) [%]	inhibition at 10 µM [1] [%]	inhibition at 10 µM [2] [%]	inhibition at 10 µM (HepG2 liver cancer cells) [%]	inhibition at 10 µM [3] [%]	inhibition at 10 µM (KG-1a leukaemia cells) [%]	inhibition at 10 µM [4] [%]	inhibition at 10 µM (A549 lung cancer cells) [%]	IC50 [6] [µM]	inhibition at 10 µM (H441 lung cancer cells; Homo sapiens, NCI-H441, 24 h) [%]	cell cycle arrest phase (A549 cells)
120 to 122	> 100	915.2 ± 4.3	511.2 ± 3.2	> 100	–	COc1ccc(C2CC(c3ccc(Cl)cc3Cl)=NN2c2nc(-c3ccccc3)cs2)cc1OC (stereo not drawn) [Compound 7c, 2-(3-(2,4-Dichlorophenyl)-5-(3,4-dimethoxyphenyl)-4,5-dihydro-1H-pyrazol-1-yl)-4-phenylthiazole]	–	5.2 ± 0.5	3.1 ± 0.6	4.9 ± 0.8	17.1 ± 2.7	7.3 ± 1.2	4.3 ± 0.7	9.2 ± 0.9	8.9 ± 1.1	> 100	16.2 ± 0.3	–
187 to 188	57.1 ± 4.1	336 ± 6.3	93.6 ± 3	21.7 ± 1.3	–	COc1ccc(C2CC(c3ccc(Cl)cc3Cl)=NN2c2nc(C)c(N=Nc3ccccc3)s2)cc1OC (stereo not drawn) [Compound 13d, 2-(3-(2,4-Dichlorophenyl)-5-(3,4-dimethoxyphenyl)-4,5-dihydro-1H-pyrazol-1-yl)-4-methyl-5-(phenyldiazenyl)thiazole]	–	18.2 ± 1.8	14.2 ± 2.2	10.1 ± 3.5	18.6 ± 2.5	22.3 ± 1.3	24.1 ± 2.7	11.9 ± 1.8	12.6 ± 2.7	64.2 ± 2.8	38.9 ± 2.4	–
176 to 177	19.1 ± 1.3	216 ± 4.3	67.7 ± 2	15.2 ± 3.6	–	COc1ccc(C2CC(c3ccc(Cl)cc3Cl)=NN2c2nc(C)c(N=Nc3ccc(C)cc3)s2)cc1OC (stereo not drawn) [Compound 13e, 2-(3-(2,4-Dichlorophenyl)-5-(3,4-dimethoxyphenyl)-4,5-dihydro-1H-pyrazol-1-yl)-4-methyl-5-(p-tolyldiazenyl)thiazole]	–	24 ± 2	12.5 ± 1.5	9.9 ± 0.8	0.3	16.1 ± 0.9	15.2 ± 1.8	1.8 ± 0.6	30.3 ± 2.4	87 ± 4.2	46.9 ± 3.9	–
168 to 170	> 100	1151 ± 4.3	973 ± 2	> 100	94.4 ± 5.5	COc1ccc(C2CC(c3ccc(Cl)cc3Cl)=NN2c2nc(C)c(N=Nc3ccccc3)s2)cc1 (stereo not drawn) [Compound 13a, 2-(3-(2,4-Dichlorophenyl)-5-(4-methoxyphenyl)-4,5-dihydro-1H-pyrazol-1-yl)-4-methyl-5-(phenyldiazenyl)thiazole]	–	2.2 ± 0.2	10.3 ± 1.1	19.5 ± 1.4	15.8 ± 2.2	15.3 ± 1.4	4.1 ± 0.9	17.8 ± 1	11 ± 0.8	> 100	22.2 ± 0.9	–
170 to 171	59.1 ± 3.2	214 ± 4	179	24.2 ± 1.8	–	COc1ccc(C2CC(c3ccc(Cl)cc3Cl)=NN2c2nc(C)c(N=Nc3ccc(C)cc3)s2)cc1 (stereo not drawn) [Compound 13b, 2-(3-(2,4-Dichlorophenyl)-5-(4-methoxyphenyl)-4,5-dihydro-1H-pyrazol-1-yl)-4-methyl-5-(p-tolyldiazenyl)thiazole]	–	11 ± 0.6	5.1 ± 0.3	0.8 ± 0.2	0.08	8.3 ± 0.9	7.1 ± 0.2	3.4 ± 0.5	16.2 ± 1.3	> 100	23.3 ± 2.4	–
